Test results from patent US20250368645A1, “BETA CARBOLINE ANALOGUES AS SELECTIVE AND BIASED KAPPA OPIOID RECEPTORS AGONISTS FOR TREATING VARIOUS ASSOCIATED PATHOPHYSIOLOGICAL CONDITIONS” (COUNCIL OF SCIENTIFIC AND INDUSTRIAL RESEARCH, priority 2022, published 2025).

How the values were obtained:
Format in all cases: cell-based
human KOR = human KOR (Homo sapiens, UniProt P41145); assay: GloSensor assay, Gi-mediated cAMP inhibition in HEK-293T cells transfected with human KOR; settings: given as Log IC50 (negative values); agonist activity, inhibition of FSK-stimulated cAMP; read-out: GloSensor Assay (Log IC50) KOR (converted)
Sequence of human KOR (P41145 whole entry): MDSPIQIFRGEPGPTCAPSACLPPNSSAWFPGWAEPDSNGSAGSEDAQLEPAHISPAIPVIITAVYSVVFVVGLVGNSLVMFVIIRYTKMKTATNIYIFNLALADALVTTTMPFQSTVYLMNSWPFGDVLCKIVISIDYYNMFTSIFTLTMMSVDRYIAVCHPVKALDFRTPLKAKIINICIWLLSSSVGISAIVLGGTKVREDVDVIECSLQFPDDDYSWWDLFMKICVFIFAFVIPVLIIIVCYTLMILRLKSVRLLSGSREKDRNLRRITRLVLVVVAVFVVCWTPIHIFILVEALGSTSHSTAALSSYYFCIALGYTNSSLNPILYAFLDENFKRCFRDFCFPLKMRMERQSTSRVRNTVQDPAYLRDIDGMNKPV

MOR = MOR (Homo sapiens, UniProt P35372); assay: GloSensor assay at MOR; settings: given as Log IC50 (negative values)
Sequence of MOR (P35372 whole entry): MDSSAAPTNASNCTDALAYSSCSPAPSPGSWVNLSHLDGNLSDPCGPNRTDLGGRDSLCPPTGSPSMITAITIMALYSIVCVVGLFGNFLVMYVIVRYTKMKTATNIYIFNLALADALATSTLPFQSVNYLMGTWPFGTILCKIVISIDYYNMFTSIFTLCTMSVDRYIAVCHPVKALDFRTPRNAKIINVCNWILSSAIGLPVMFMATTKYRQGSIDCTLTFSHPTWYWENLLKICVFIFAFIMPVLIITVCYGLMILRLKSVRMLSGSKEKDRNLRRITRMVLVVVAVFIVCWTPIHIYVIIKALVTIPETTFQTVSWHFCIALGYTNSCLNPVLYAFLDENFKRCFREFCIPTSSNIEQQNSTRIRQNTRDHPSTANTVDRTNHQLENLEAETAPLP

DOR = DOR (Homo sapiens, UniProt P41143); assay: GloSensor assay at DOR; settings: given as Log IC50 (negative values)
Sequence of DOR (P41143 whole entry): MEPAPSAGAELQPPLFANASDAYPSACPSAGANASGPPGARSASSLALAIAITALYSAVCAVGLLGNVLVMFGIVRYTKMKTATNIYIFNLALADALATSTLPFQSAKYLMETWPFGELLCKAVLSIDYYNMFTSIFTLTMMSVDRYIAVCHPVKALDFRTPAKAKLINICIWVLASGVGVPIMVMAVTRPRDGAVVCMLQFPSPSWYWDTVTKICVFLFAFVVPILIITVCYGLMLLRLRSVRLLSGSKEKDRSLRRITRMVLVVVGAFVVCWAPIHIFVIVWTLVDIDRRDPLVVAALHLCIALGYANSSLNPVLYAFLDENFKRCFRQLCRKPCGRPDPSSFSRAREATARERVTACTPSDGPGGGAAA

Clc1ccc(-c2c3c4[nH]c5ccccc5c4c4ccccc4[n+]3cn2-c2ccc(Br)cc2)cc1 [12db, 2(4-Bromophenyl-1-(4-chlorophenyl)-2,13-dihydroimidazo[1,5-a]indolo[2,3-c]quinolin-4-ium chloride]
IC50 (human KOR): 0.251 µM

Fc1ccc(Cn2c[n+]3ccc4c5ccccc5[nH]c4c3c2-c2ccc(Br)cc2)cc1 [9aab, 1-(4-Bromophenyl)-2-(4-fluorobenzyl)-2,11-dihydroimidazo[1′,5′:1,2]pyrido[3,4-b]indol-4-ium chloride]
IC50 (MOR): > 10 µM
IC50 (human KOR): 0.263 µM
IC50 (DOR): > 10 µM

Fc1ccc(-n2c[n+]3ccc4c5ccccc5[nH]c4c3c2-c2cccs2)cc1 [8and, 2-(4-Fluorophenyl)-1-(thiophen-2-yl)-2,11-dihydroimidazo[1′,5′:1,2]pyrido[3,4-b]indol-4-ium chloride]
IC50 (MOR): > 10 µM
IC50 (human KOR): 0.209 µM
IC50 (DOR): > 10 µM

Clc1ccccc1-c1c2c3[nH]c4ccccc4c3cc[n+]2cn1-c1ccc(Br)cc1 [8aeb, 2-(4-Bromophenyl)-1-(2-chlorophenyl)-2,11-dihydroimidazo[1′,5′:1,2]pyrido[3,4-b]indol-4-ium chloride]
IC50 (MOR): 1.26 µM
IC50 (human KOR): > 10 µM
IC50 (DOR): 2 µM

Brc1ccc(-c2c3c4[nH]c5ccccc5c4cc[n+]3cn2Cc2ccccc2)cc1 [9aaa, 2-Benzyl-1-(4-bromophenyl)-2,11-dihydroimidazo[1′,5′:1,2]pyrido[3,4-b]indol-4-ium chloride]
IC50 (MOR): > 10 µM
IC50 (human KOR): > 10 µM
IC50 (DOR): > 10 µM

FC(F)(F)Oc1ccc(-n2c[n+]3ccc4c5ccccc5[nH]c4c3c2-c2ccc(Br)cc2)cc1 [8abh]
IC50 (MOR): > 10 µM
IC50 (human KOR): > 10 µM
IC50 (DOR): > 10 µM

COC(=O)c1cc2c3ccccc3[nH]c2c2c(-c3ccc(C)cc3)n(-c3ccc(F)cc3)c[n+]12 [8bkd, 2-(4-Fluorophenyl)-5-(methoxycarbonyl)-1-(p-tolyl)-2,11-dihydroimidazo[1′,5′:1,2]pyrido[3,4-b]indol-4-iumchloride]
IC50 (MOR): > 10 µM
IC50 (human KOR): > 10 µM
IC50 (DOR): > 10 µM

CC(C)(C)c1ccc(Cn2c[n+]3ccc4c5ccccc5[nH]c4c3c2-c2ccc(Br)cc2)cc1 [9aac, 1-(4-Bromophenyl)-2-(4-(tert-butyl)benzyl)-2,11-dihydroimidazo[1′,5′:1,2]pyrido[3,4-b]indol-4-ium chloride]
IC50 (MOR): > 10 µM
IC50 (human KOR): > 10 µM
IC50 (DOR): > 10 µM

Brc1ccc(-c2c3c4[nH]c5ccccc5c4cc[n+]3cn2-c2ccccc2)cc1 [8aba, 1-(4-Bromophenyl)-2-phenyl-2,11-dihydroimidazo[1′,5′:1,2]pyrido[3,4-b]indol-4-ium chloride]
IC50 (MOR): > 10 µM
IC50 (human KOR): 0.0708 µM
IC50 (DOR): > 10 µM

Clc1cccc(-n2c[n+]3ccc4c5ccccc5[nH]c4c3c2-c2ccc(Br)cc2)c1 [8abf, 1-(4-Bromophenyl)-2-(3-chlorophenyl)-2,11-dihydroimidazo[1′,5′:1,2]pyrido[3,4-b]indol-4-ium chloride]
IC50 (MOR): > 10 µM
IC50 (human KOR): > 10 µM
IC50 (DOR): > 10 µM

Fc1ccc(-c2c3c4[nH]c5ccccc5c4cc[n+]3cn2-c2cccc(Cl)c2)cc1 [8agf, 2-(3-Chlorophenyl)-1-(4-fluorophenyl)-2,11-dihydroimidazo[1′,5′:1,2]pyrido[3,4-b]indol-4-ium chloride]
IC50 (MOR): > 10 µM
IC50 (human KOR): > 10 µM
IC50 (DOR): > 10 µM

Fc1cccc(-c2c3c4[nH]c5ccccc5c4cc[n+]3cn2-c2ccc(Cl)cc2)c1 [8aic, 2-(4-Chlorophenyl)-1-(3-fluorophenyl)-2,11-dihydrolmidazo[1′,5′:1,2]pyrido[3,4-b]indol-4-ium chloride]
IC50 (MOR): > 10 µM
IC50 (human KOR): 0.0912 µM
IC50 (DOR): > 10 µM

Brc1ccc2[nH]c3c(cc[n+]4cn(-c5ccccc5)c(-c5ccccc5Br)c34)c2c1 [8cca, 8-Bromo-1-(2-bromophenyl)-2-phenyl-2,11-dihydrolmidazo[1′,5′:1,2]pyrido[3,4-b]indol-4-ium chloride]
IC50 (MOR): > 10 µM
IC50 (human KOR): > 10 µM
IC50 (DOR): > 10 µM
